According to PMC7581941, “Schedule-Dependent Synergy Between the Histone Deacetylase Inhibitor Belinostat and the Dihydrofolate Reductase Inhibitor Pralatrexate in T-and B-cell Lymphoma Cells in vitro” (Frontiers in Cell and Developmental Biology, 2020):
Where “and” joins values, the source holds several entries; their conditions need not be identical. Equal entries are not always repeated. Where two headings read alike, the source gives them in different places. Values belong to the compound of their own block, whether it stands above or below them.

Tests used:
cell proliferation = tested on: cell proliferation; parameters: method as in Tonner et al., 2006; settings: ref Tonner et al., 2006; cited from earlier work
FRα = target: T1, FRα (Homo sapiens, UniProt P15328); experiment: Intact cell binding assay, displacement of radio-active folic acid from KB cells; settings: inverse ratio of compound to displace 50% of radio-active folic acid, folic acid set at 1
T1 construct: endogenous in cells; host or cells: KB cells
T1 sequence (P15328 25-257): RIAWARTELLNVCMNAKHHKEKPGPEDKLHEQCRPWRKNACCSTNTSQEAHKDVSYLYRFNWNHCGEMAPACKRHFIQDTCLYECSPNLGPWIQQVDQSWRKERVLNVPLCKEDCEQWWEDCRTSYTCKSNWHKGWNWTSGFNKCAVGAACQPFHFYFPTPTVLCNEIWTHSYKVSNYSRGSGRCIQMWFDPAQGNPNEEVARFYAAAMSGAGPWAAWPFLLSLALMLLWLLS
Description: (§1) In order to determine to which extent PLX was a substrate for either the folate receptors, RFC or PCFT we used competition experiments in cell lines overexpressing either transporter ([Westerhof et al., 1995a], [b]; [Jansen et al., 1997]; [Ifergan et al., 2008]; [Lasry et al., 2008]; [van der Heijden et al., 2009]). For FRα and FRβ, we used an intact cell binding assay for competitive binding with KB cells and CHO-FRβ cells, respectively. […] For RFC we used a competition assay with 5 μM [^3H]-l-LV in CCRF-CEM/7A cells (RFC+++) for 2 min at 37°C. CEM-7A cells overexpress the RFC 30-fold over wild-type CCRF-CEM cells ([Jansen et al., 1990], [1997]).

lymphoma cell lines = experiment: Cell growth inhibition and median-drug effect analysis, panel of lymphoma cell lines; assay type: cell-based; settings: 72 hr exposure, panel of cell lines; read-out: IC50, range over the cell lines
Description: (§2) Cells were plated in 96-wells flat bottom plates, at 3,000 or 6,000 cells per well in culture medium (75 μL/well) or in 24-wells plates (60,000 cells/well) for the counting assays for which a Coulter Counter was used. Cells were treated immediately with a drug dilution series in cell culture medium (75 μL/well). […] After incubation for 3 h in the 5% CO2 incubator with 100% humidity at 37°C, 150 μL acidified 2-propanol was added to the plates to dissolve the formazan crystals. The yellow-colored MTT stock solution is taken up and reduced to a purple formazan in living cells, which directly correlates to the amount of viable cells. As final step, the plates were measured at 540 (or 492) nm by the SPECTRAfluor spectrophotometer. […] Drug interaction in combination experiments was evaluated using the median-drug effect analysis using CalcuSyn software ([Bijnsdorp et al., 2011]). […] The means of the separate experiments were subsequently averaged so that a mean ± Standard Error of the Mean (SEM) was calculated from three or more separate experiments. […] Drug combinations were designed based on the standard CalcuSyn approach in which a series of drug concentrations were combined in a fixed molar ratio, based on the IC50 of each drug. A variation of this approach was a sequential scheduling in which cells were exposed for 72 h to BLS, while in the combination PLX was added after 24 h and cells were exposed from 24 to 72 h.

HT cells [1] = experiment: Cell growth inhibition (cell counting) and median-drug effect analysis, HT; assay type: cell-based; settings: for IC50: HT
SUDHL-5 cells = experiment: Cell growth inhibition (MTT) and median-drug effect analysis, SUDHL-5; assay type: cell-based
Description: (§3) Cells were treated immediately with a drug dilution series in cell culture medium (75 μL/well). After an incubation period of approximately 72 h, growth in the 96-wells plates was assessed by adding 15 μL MTT solution (stock solution 5 mg/ml in PBS, final concentration 0.5 mg/ml in culture medium) to each well. After incubation for 3 h in the 5% CO2 incubator with 100% humidity at 37°C, 150 μL acidified 2-propanol was added to the plates to dissolve the formazan crystals. The yellow-colored MTT stock solution is taken up and reduced to a purple formazan in living cells, which directly correlates to the amount of viable cells. As final step, the plates were measured at 540 (or 492) nm by the SPECTRAfluor spectrophotometer.
Drug interaction in combination experiments was evaluated using the median-drug effect analysis using CalcuSyn software ([Bijnsdorp et al., 2011]). In order to evaluate combination indexes [CI] from different experiments, the CI values at Fraction Affected (FA) values >0.5 (preferably around 0.5, 0.75, and 0.9) were averaged for each specific experiment. The means of the separate experiments were subsequently averaged so that a mean ± Standard Error of the Mean (SEM) was calculated from three or more separate experiments. […] Drug combinations were designed based on the standard CalcuSyn approach in which a series of drug concentrations were combined in a fixed molar ratio, based on the IC50 of each drug. A variation of this approach was a sequential scheduling in which cells were exposed for 72 h to BLS, while in the combination PLX was added after 24 h and cells were exposed from 24 to 72 h. In the non-fixed ratio approach one drug was used at the IC25 (concentration that results in 25% growth inhibition) and the other drug was added in a concentration range.

Jeko-1 = experiment: Cell growth inhibition (MTT) and median-drug effect analysis, Jeko-1; assay type: cell-based; settings: Homo sapiens, read-out: IC50 (50% growth inhibition); Jeko-1, 72 h exposure
Description: as §2, with “A variation of this approach was a sequential scheduling in which cells were exposed for 72 h to BLS, while in the combination PLX was added after 24 h and cells were exposed from 24 to 72 h.” left out

HT cells [2] = experiment: FACS propidium iodide staining: cell cycle distribution and cell death, HT; assay type: cell-based; settings: drugs at their IC50, untreated 3.5%
Description: (§4) Propidium iodide staining (DNA staining) was used to determine cell cycle distribution and the extent of cell death. Cells (120,000 per well in a 24-wells plate) were exposed to PLX or BLS or the combination for 24, 48, or 72 h. Cells were harvested, suspended in 1.0 ml phosphate buffered saline/1% Bovine serum albumin and fixed with 70% ethanol. After centrifugation the pellet was resuspended in hypotonic propidium iodide (0.1 mg/ml), Triton-X-100 (0.1%), sodium citrate (1 mg/ml) and RNAse A (0.5 mg/ml) (final concentrations in saline) and stored in dark on ice for 30 min ([De Wilt et al., 2012]). DNA content of the cells to determine cell cycle effects and cell kill was analyzed by a FACScalibur (Becton Dickinson Immunocytometry Systems, San Jose, CA, United States) with an acquisition of 10,000 events as described previously ([De Wilt et al., 2012]).

SUDHL-4 cells [3] = experiment: FACS propidium iodide staining: cell death, SUDHL-4; assay type: cell-based; settings: drugs at their IC50, untreated 5.0%
Description: as §4

PCFT = target: T2, PCFT (Homo sapiens, UniProt Q96NT5); experiment: PCFT competition assay: inhibition of [3H]-l-LV influx in CHO-cells lacking RFC and transfected with PCFT; assay type: cell-based; settings: for IC50: 2.5 μM [3H]-l-LV, pH 5.5, 3 min, 37°C, read-out: PCFT: concentration of unlabeled drug necessary to inhibit [3H]-LV influx
T2 construct: expressed in transfected cells; host or cells: CHO cells lacking RFC
T2 sequence (Q96NT5 1-459): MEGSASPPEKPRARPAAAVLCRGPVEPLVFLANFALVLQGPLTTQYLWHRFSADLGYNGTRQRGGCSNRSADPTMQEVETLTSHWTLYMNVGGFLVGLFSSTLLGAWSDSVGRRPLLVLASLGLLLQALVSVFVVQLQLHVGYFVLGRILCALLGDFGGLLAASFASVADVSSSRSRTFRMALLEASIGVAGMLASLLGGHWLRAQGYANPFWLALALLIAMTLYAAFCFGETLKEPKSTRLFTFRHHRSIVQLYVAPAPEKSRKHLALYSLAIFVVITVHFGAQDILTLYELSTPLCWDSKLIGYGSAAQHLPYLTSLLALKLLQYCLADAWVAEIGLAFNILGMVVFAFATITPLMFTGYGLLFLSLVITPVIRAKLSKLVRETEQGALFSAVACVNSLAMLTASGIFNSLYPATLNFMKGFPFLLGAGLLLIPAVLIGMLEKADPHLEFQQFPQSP
Description: The affinity for PCFT of PLX was assessed in competition with 2.5 μM ^3H-l-LV at pH 5.5 in CHO-cells lacking RFC and transfected with PCFT. […] […] Also for PCFT relative affinities were expressed as the concentration of unlabeled drug necessary to inhibit [^3H]-LV influx.

CCRF-CEM = experiment: Cell growth inhibition (MTT), CCRF-CEM; assay type: cell-based, human
Description: as §3

FRβ = target: T3, FRβ (Homo sapiens, UniProt P14207); experiment: Intact cell binding assay, displacement of radio-active folic acid from CHO-FRβ cells; settings: folic acid set at 1
T3 construct: expressed in transfected cells; host or cells: CHO-FRβ cells
T3 sequence (P14207 17-255, species assumed): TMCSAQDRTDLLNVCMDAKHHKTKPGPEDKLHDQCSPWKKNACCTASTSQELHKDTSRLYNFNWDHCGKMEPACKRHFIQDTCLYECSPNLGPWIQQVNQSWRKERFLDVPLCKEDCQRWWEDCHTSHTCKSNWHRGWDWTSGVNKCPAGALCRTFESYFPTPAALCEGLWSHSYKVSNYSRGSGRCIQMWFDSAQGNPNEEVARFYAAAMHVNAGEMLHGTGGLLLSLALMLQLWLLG
Description: as §1

Karpas-299 = experiment: Cell growth inhibition (MTT) and median-drug effect analysis, Karpas-299; assay type: cell-based; settings: Homo sapiens, read-out: IC50 (50% growth inhibition); Karpas-299, 72 h exposure
Description: as §3
(§5) Drug interaction in combination experiments was evaluated using the median-drug effect analysis using CalcuSyn software ([Bijnsdorp et al., 2011]). In order to evaluate combination indexes [CI] from different experiments, the CI values at Fraction Affected (FA) values >0.5 (preferably around 0.5, 0.75, and 0.9) were averaged for each specific experiment. The means of the separate experiments were subsequently averaged so that a mean ± Standard Error of the Mean (SEM) was calculated from three or more separate experiments. […]

Hut-29 = experiment: Cell growth inhibition (MTT) and median-drug effect analysis, Hut-29; assay type: cell-based; settings: read-out: IC50 (50% growth inhibition); Hut-29, 72 h exposure
Description: as §3, §5

RFC = target: T4, RFC (Homo sapiens, UniProt P41440); experiment: RFC competition assay: inhibition of [3H]-l-LV uptake in CCRF-CEM/7A cells (RFC+++); assay type: cell-based; settings: for IC50: 5 μM [3H]-l-LV, 2 min, 37°C, CCRF-CEM/7A cells, read-out: RFC: concentration of unlabeled drug necessary to inhibit [3H]-l-LV uptake by 50%
T4 construct: CEM-7A cells overexpress the RFC 30-fold over wild-type CCRF-CEM cells; endogenous in cells; host or cells: CCRF-CEM/7A (CEM-7A) cells
T4 sequence (P41440 1-591): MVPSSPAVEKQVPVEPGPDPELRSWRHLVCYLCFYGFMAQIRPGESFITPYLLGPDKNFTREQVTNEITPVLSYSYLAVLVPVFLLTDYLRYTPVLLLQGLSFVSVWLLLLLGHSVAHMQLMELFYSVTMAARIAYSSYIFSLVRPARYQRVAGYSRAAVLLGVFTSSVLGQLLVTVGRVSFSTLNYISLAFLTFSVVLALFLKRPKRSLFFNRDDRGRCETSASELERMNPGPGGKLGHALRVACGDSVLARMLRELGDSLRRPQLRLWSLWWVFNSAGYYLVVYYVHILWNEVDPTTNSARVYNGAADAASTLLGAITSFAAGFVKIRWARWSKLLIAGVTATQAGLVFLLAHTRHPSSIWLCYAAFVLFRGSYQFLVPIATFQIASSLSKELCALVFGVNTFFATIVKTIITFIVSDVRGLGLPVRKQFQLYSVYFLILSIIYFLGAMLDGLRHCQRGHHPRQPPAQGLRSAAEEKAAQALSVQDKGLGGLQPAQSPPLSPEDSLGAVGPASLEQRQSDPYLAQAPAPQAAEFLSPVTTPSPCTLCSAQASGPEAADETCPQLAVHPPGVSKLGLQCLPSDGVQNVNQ
Description: For FRα and FRβ, we used an intact cell binding assay for competitive binding with KB cells and CHO-FRβ cells, respectively. […] For RFC we used a competition assay with 5 μM [^3H]-l-LV in CCRF-CEM/7A cells (RFC+++) for 2 min at 37°C.
Transport was determined by evaluation of the uptake of 5 μM [^3H]-l-LV for 2 min in CCRF-CEM-7A cells, which overexpress RFC. […] Values are from one representative experiment in triplicate; performed three times. Error bars represent SEM, when not visible, they are within the size of the marker.

SUDHL-4 cells [4] = experiment: Cell growth inhibition (cell counting) and median-drug effect analysis, SUDHL-4; assay type: cell-based; settings: Homo sapiens, SU-DHL-4, read-out: IC50 (50% growth inhibition); SUDHL 4, 72 h exposure

FR-α relative affinity (FRα): 0.0035 and 0.0035 ± 0.0005
IC50 (lymphoma cell lines): 0.0028 to 0.02 µM
IC50 (SUDHL-5 cells; Homo sapiens, SU-DHL-5, read-out: IC50 (50% growth inhibition), SUDHL 5, 72 h exposure): 0.0055 ± 0.0009 µM
IC50 (PCFT): 15 µM and 14.8 µM
substrate for PCFT at physiological pH (PCFT; pH 7.4): very poor substrate
IC50 (CCRF-CEM; Homo sapiens, read-out: IC50 (50% growth inhibition), CCRF-CEM, 72 h exposure): 0.0026 ± 0.0004 µM
FRβ relative affinity (FRβ): < 0.001
IC50 (Karpas-299): 0.0247 ± 0.0053 µM
RFC substrate affinity, fold better compared to methotrexate (RFC): 6 fold
RFC substrate affinity, fold better than levoleucovorin (l-LV) (RFC): 2 fold
IC50 (RFC): 2.8 ± 0.1 µM
IC50 (SUDHL-4 cells [4]): 0.0056 ± 0.0004 µM
Compound: C#CCC(Cc1cnc2nc(N)nc(N)c2n1)c1ccc(C(=O)N[C@@H](CCC(=O)O)C(=O)O)cc1 (stereo partly shown) [PLX, Pralatrexate]
potency in suppressing cell proliferation relative to methotrexate (cell proliferation): one log more potent
IC25 (concentration that results in 25% growth inhibition) (HT cells [1]; HT cells, 72 h): ~0.005 µM
IC50 (HT cells [1]; Homo sapiens, 72 h, read-out: IC50 (50% growth inhibition), HT, 72 h exposure): ~0.01 µM
IC50 (HT cells [1]; read-out: IC50 (50% growth inhibition), 72 h exposure): 0.0074 ± 0.0005 µM
IC25 (concentration that results in 25% growth inhibition) (SUDHL-5 cells; SUDHL-5 cells, 72 h): ~0.004 µM
IC50 (Jeko-1): 0.0187 ± 0.0042 µM
accumulation of cells in the sub-G1 phase (cell death) (HT cells [2]): 13%
accumulation of cells in the sub-G1 phase (cell death) (SUDHL-4 cells [3]): 22.1%
reversal of cytotoxicity by l-LV (CCRF-CEM; 5 μM l-LV, CEM cells): 2965 fold
IC50 (Hut-29): 0.0028 ± 0.0005 µM

FR-α relative affinity (FRα): 0.073 ± 0.0010
IC50 (PCFT): 4 ± 0.1 µM
IC50 (RFC): 5.5 ± 0.7 µM
Compound: Nc1nc(=O)c2c([nH]1)NC[C@H](CNc1ccc(C(=O)N[C@@H](CCC(=O)O)C(=O)O)cc1)N2C=O [l-LV, l-Leucovorin]
